{
  "source": "patent US12102709B2",
  "about": "“Anti-obesity agent, anti-dementia agent, deodorant, anti-aging agent, anti-glycation agent, anti-type I allergy agent, hypotensive agent, flavor improving agent, muscle enhancing agent, and bone metabolism improving agent” (Mitsui Sugar Co., Ltd., priority 2018, dated 2024)",
  "key": {"[1]": {"test_system": "human osteoclast precursor cells", "experiment": "Osteoclast differentiation inhibition test 1 (TRAP staining)", "assay_type": "cell-based", "conditions": "1,000 μM melatonin; 7 days; FIG. 11", "method": "(Cells) • Human osteoclast precursor cells (commercially available from Cosmo Bio Co., Ltd. PT-267 Lot. RBW-F-OSH-HBV) Using the above culture medium, 250 μg/mL of a solution containing the extract A was prepared, and this was used as a test solution (Example j2-1). Human osteoclast precursor cells were seeded in a 96-well culture plate at about 0.3×10^5 cells/50 μl/well. A test solution was added thereto at 50 μL/well and culturing was performed under conditions of 37° C. and 5% CO2 for 7 days. The cultured cells were stained with TRAP using a TRAP staining kit, and observed under a microscope. In the same manner, the same test was performed on a culture medium to which no test solution was added (Comparative Example j2-1) and a culture medium containing 1,000 μM melatonin (Positive Control j2) as a positive control."}, "[2]": {"test_system": "human osteoclast precursor cells", "experiment": "Osteoclast differentiation inhibition test 2 (proportion of mononuclear cells)", "assay_type": "cell-based", "conditions": "7 days", "method": "It is known that, when osteoclasts mature, cells fuse each other and become multinucleated. Therefore, the proportion of mononuclear cells of osteoclasts was measured, and an osteoclast differentiation inhibition effect was confirmed. Under the same culture conditions as in Example j2-1, human osteoclast precursor cells were cultured using a culture medium containing the extract A with a concentration shown in Table 27 (Example j3-1), a culture medium containing no extract (Comparative Example j3-1), or a culture medium containing melatonin with a concentration shown in Table 27 (Positive Controls j3-1 to j3-2) as positive controls. The proportion of mononuclear cells (%) was calculated by dividing the number of mononuclear cells in the field of view of the microscope by the total number of cells in the field of view."}, "C2C12 cells [3]": {"test_system": "C2C12 cells", "experiment": "Mitochondrial activation test (amount of mitochondria per cell)", "assay_type": "cell-based, mouse", "conditions": "Table 24; positive control; 48 hours; Comparative Example i1-4 = 100%", "method": "(Cells) • Mouse Myoblasts C2C12 Cells (ATCC, CRL-1772) (Culture Mediums) • Growth culture medium composition: DMEM culture medium, 10% FBS, antibiotics added • Differentiation culture medium composition: DMEM culture medium, 0.5% FBS, antibiotics added C2C12 cells were cultivated using a growth culture medium in a T-75 flask (75 cm^2 U-shaped canted neck cell culture flask, commercially available from Corning Co., Ltd.). The T-75 flask was put into a CO2 incubator (5% CO2, 37° C., wet) and the C2C12 cells were cultured. The culture medium was replaced every other day, and when an 80% confluence was reached, the cells were collected and used for the test. Here, in the following test, regarding a well plate for culturing C2C12 cells, a plate coated with gelatin according to the following coating method was used. […] Then, after the culture supernatant was removed, a differentiation culture medium containing 5 μg/mL Hoechst (reagent for nuclear staining) and 500 nM MitoTracker (mitochondria staining reagent) was added to the well plate, and the fluorescence intensity was measured by the same method as in Test Example i1-1. The amount of mitochondria per cell was calculated by dividing the fluorescence intensity of the differentiation culture medium containing MitoTracker by the fluorescence intensity of the differentiation culture medium containing Hoechst. […]"}, "C2C12 cells [4]": {"test_system": "C2C12 cells", "experiment": "Mitochondrial activation test (activity per cell)", "assay_type": "cell-based, mouse", "conditions": "resveratrol 50 μM, 1% (v/v) ethanol; 48 hours; Comparative Example i1-2 = 100%", "method": "(Cells) • Mouse Myoblasts C2C12 Cells (ATCC, CRL-1772) (Culture Mediums) • Growth culture medium composition: DMEM culture medium, 10% FBS, antibiotics added • Differentiation culture medium composition: DMEM culture medium, 0.5% FBS, antibiotics added C2C12 cells were cultivated using a growth culture medium in a T-75 flask (75 cm^2 U-shaped canted neck cell culture flask, commercially available from Corning Co., Ltd.). The T-75 flask was put into a CO2 incubator (5% CO2, 37° C., wet) and the C2C12 cells were cultured. The culture medium was replaced every other day, and when an 80% confluence was reached, the cells were collected and used for the test. […] Pre-cultured cells were seeded in a 96-well plate for fluorescence observation (optical bottom plate, commercially available from Nunc) at 4×10^4 cells/0.1 mL/well using a growth culture medium. […] Then, the fluorescence intensity was measured with a fluorescent plate reader. The mitochondrial activity per cell was calculated by dividing the fluorescence intensity of the differentiation culture medium containing rhodamine by the fluorescence intensity of the differentiation culture medium containing Hoechst. […] In addition, the relative values (%) in the test samples of Examples i1-4 to i1-6 and Positive Control it when the mitochondrial activity in the test sample of Comparative Example i1-2 was set as 100% were determined."}, "[5]": {"experiment": "AGEs crosslinking cutting test", "assay_type": "biochemical", "conditions": "PTB 5 mmol/L", "method": "Next, according to the AGEs crosslinking cutting test, the AGEs decomposition activity of the bagasse decomposition extract (the extract A) was evaluated. […] PPD) having an α-diketone structure was used as a model substrate, which is a known method (for example, Glycative Stress Research 2015, Vol. 2 (No. 2), pp. 58-66). The extract A as a bagasse decomposition extract was dissolved in distill water to a concentration of 20 mg/mL to prepare a test sample. The above prepared sample was added to a reaction solution containing a 0.16 mol/L phosphate buffer solution (pH 7.4), and a […] PPD composition to a concentration of 1/2 (10 mg/mL) and incubated at 37° C. for 8 hours. […] The amount of benzoic acid in the supernatant was analyzed through reversed phase HPLC. The amount of benzoic acid in the reaction solution was determined by subtracting the amount of benzoic acid in the sample that was separately measured. Since 1 mol of PPD produced 1 mol of benzoic acid, the crosslinking cutting rate was calculated according to the following formula. […] Then, the reaction solution was centrifuged at 20° C. and 3,000×g, for 10 minutes, and the amount of benzoic acid in the supernatant was analyzed through reversed phase HPLC. The amount of benzoic acid in the reaction solution was determined by subtracting the amount of benzoic acid in the sample that was separately measured. […]"}, "3T3-L1 cells": {"test_system": "3T3-L1 cells", "experiment": "3T3-L1 cell lipid accumulation inhibition test", "assay_type": "cell-based, mouse", "conditions": "berberine chloride final concentration 1 μg/mL; untreated control = 100%", "method": "The extract A was dissolved in water to prepare 50 mg/mL of a test solution stock solution. The test solution stock solution was diluted with a DMEM culture medium to prepare a test solution with a specimen concentration of 2,000 μg/mL.\n3T3-L1 cells (National Institute of Biomedical Innovation, Health and Nutrition) as mouse adipose progenitor cells were seeded on a 24-well plate, and cultured in a DMEM culture medium containing a newborn calf serum (10 vol %, with respect to a total amount of the culture medium) and a penicillin-streptomycin solution (1 vol %, with respect to a total amount of the culture medium) for 4 days. […]\nAfter the lipid droplets were observed, a pigment extract solution contained in the Adipogenesis Assay Kit was added to samples of Example a1, Comparative Example a1-1, and Positive Control a1-1, and Oil Red O incorporated into the lipid droplets was extracted. The absorbance of the extracted Oil Red O at 520 nm was measured using a microplate reader (SpectraMax M2e, commercially available from Molecular Devices, LLC.).\nThe lipid accumulation rate was calculated from the absorbance of respective samples according to the following formula. […]"}},
  "data": [
    {"compound": "COc1ccc2[nH]cc(CCNC(C)=O)c2c1", "note": "[Positive Control j3-1, melatonin]", "values": [
      {"measurement": "Microscopic observation of TRAP-stained osteoclasts", "setting": "[1]", "value": "a decrease in the number of osteoclasts was also observed"},
      {"measurement": "Proportion of mononuclear cells (%) (average N = 3)", "setting": "[2]; melatonin 500 μM", "value": 88, "unit": "%"},
      {"measurement": "Proportion of mononuclear cells (%) (average N = 3)", "setting": "[2]; melatonin 1,000 μM", "value": 100, "unit": "%"}
    ]},
    {"compound": "Oc1ccc(C=Cc2cc(O)cc(O)c2)cc1", "note": "[Positive Control i1-1, resveratrol]", "values": [
      {"measurement": "Amount of mitochondria per cell (relative value, %)", "setting": "C2C12 cells [3]", "value": "178.4 ± 9.6", "unit": "%"},
      {"measurement": "Mitochondrial activity per cell (relative value, %)", "setting": "C2C12 cells [4]", "value": "178.4 ± 9.6", "unit": "%"}
    ]},
    {"compound": "O=C(C[n+]1ccsc1)c1ccccc1.[Br-]", "note": "[PTB, N-phenacylthiazoliumbromide]", "values": [
      {"measurement": "Crosslinking cutting rate", "setting": "[5]; Test Example e2", "value": 20.1, "unit": "%"},
      {"measurement": "Crosslinking cutting rate", "setting": "[5]; Test Example e4", "value": 22.4, "unit": "%"}
    ]},
    {"compound": "COc1ccc2cc3[n+](cc2c1OC)CCc1cc2c(cc1-3)OCO2", "note": "[Positive Control a1-1, berberine chloride]", "values": [
      {"measurement": "Lipid accumulation rate", "setting": "3T3-L1 cells", "value": "19±1.0", "unit": "%"}
    ]}
  ]
}
